Reference: PMC11191095, “QSAR Reveals Decreased Lipophilicity of Polar Residues Determines the Selectivity of Antimicrobial Peptide Activity” (ACS Omega, 2024)
In brackets after ≈: the same amount, converted by molar mass. Where a SMILES comes first, the peptide text is derived from it.

How the values were obtained:
Assay in all cases: microbe, parasite or virus in culture
S. aureus (MRSA) USA300 = format: cell-based, Staphylococcus aureus; conditions: S. aureus (MRSA) USA300 (R)
Experimental: (§1) Antimicrobial activity was evaluated against a panel of 18 pathogens consisting of eight Gram-negative strains (E. coli NCTC 12923, E. coli LEC001, Pseudomonas aeruginosa PAO1, P. aeruginosa NCTC 13437, Acinetobacter baumannii ATCC 17978, A. baumannii AYE, Klebsiella pneumoniae M6, K. pneumoniae NCTC 13368), four Gram-positive strains (Staphylococcus aureus ATCC 9144, S. aureus NCTC 13616, S. aureus USA300, S. aureus 1199B) and six fungi (Candida auris TDG 1912, C. albicans NCPF 8018, C. krusei NCPF 3876, C. tropicalis NCPF 8760, and C. parapsilosis NCPF 3209). Pathogens were grown in noncation adjusted Mueller Hinton broth (MHB, for bacteria) or Roswell Park Memorial Institute (RPMI 1640) + 2% glucose (for fungi) at 37 °C with 180 rpm shaking and maintained on solid media (tryptic soy agar for bacteria and Sabouraud dextrose agar for fungi). For an antibiogram, see Suppl.
(§2) The 46 peptides were serially diluted (128 to 2 μg/mL) in media down polypropylene 96-well plates. Bacteria or fungi, diluted from an overnight culture to an OD600 of 0.01, were added to the serially diluted peptides at a 1:1 ratio resulting in a starting cell density of ∼5 × 10^5 CFU/mL. Plates were incubated at 37 °C for 20 h, and the optical density was determined spectrophotometrically at 600 nm. Minimum inhibition concentrations (MICs) were determined from a minimum of three biological repeats and are reported in μg/mL as well as μM. […] The MIC50 or MIC90 is defined as the lowest peptide concentration that results in 50% or 90% growth inhibition over a 20 h treatment period, respectively.

[1] = system: S. aureus (MRSA) NCTC 13616; format: cell-based, Staphylococcus aureus; conditions: for Modal MIC: S. aureus (MRSA) NCTC 13616 (R)
Experimental: as §1, §2

S. aureus (MRSA) 1199B = format: cell-based, Staphylococcus aureus; conditions: for Modal MIC: S. aureus (MRSA) 1199B (R)
Experimental: as §1, §2

C. auris TDG 1912 = format: cell-based, Candida auris; conditions: TDG 1912, 20 h
Experimental: as §1, §2

K. pneumoniae NCTC 13368 = format: cell-based, Klebsiella pneumoniae; conditions: for Modal MIC: K. pneumoniae NCTC 13368 (R)
Experimental: as §1, §2

C. albicans NCPF 3281 = format: cell-based; conditions: NCPF 3281, 20 h
Experimental: as §1, §2

[2] = system: C. parapsilosis NCPF 3209; format: cell-based; conditions: NCPF 3209, 20 h
Experimental: as §1, §2

C. krusei NCPF 3876 = format: cell-based; conditions: NCPF 3876, 20 h
Experimental: as §1, §2

C. tropicalis NCPF 8760 = format: cell-based; conditions: NCPF 8760, 20 h
Experimental: as §1, §2

C. glabrata NCPF 8018 = format: cell-based; conditions: NCPF 8018, 20 h
Experimental: as §1, §2

P. aeruginosa NCTC 13437 = format: cell-based, Pseudomonas aeruginosa; conditions: for Modal MIC: P. aeruginosa NCTC 13437 (R)
Experimental: as §1, §2

A. baumannii AYE = format: cell-based, Acinetobacter baumannii; conditions: for Modal MIC: A. baumannii AYE (R)
Experimental: as §1, §2

[3] = system: S. aureus (MSSA) ATCC 9144; format: cell-based, Staphylococcus aureus; conditions: 20 h
Experimental: as §1, §2

E. coli LEC001 = format: cell-based, Escherichia coli
Experimental: as §1, §2

E. coli NCTC 12923 = format: cell-based, Escherichia coli
Experimental: as §1, §2

K. pneumoniae M6 = format: cell-based, Klebsiella pneumoniae
Experimental: as §1, §2

P. aeruginosa PAO1 = format: cell-based, Pseudomonas aeruginosa
Experimental: as §1, §2

A. baumannii ATCC 17978 = format: cell-based, Acinetobacter baumannii
Experimental: as §1, §2

[4] = MHB, 37 °C, 20 h, OD600, min. three biological repeats

`CC[C@H](C)[C@H](NC(=O)[C@@H](N)CCCCN)C(=O)N[C@@H](C)C(=O)N[C@@H](CCCCN)C(=O)N[C@H](C(=O)N[C@@H](C)C(=O)N[C@@H](CC(C)C)C(=O)N[C@@H](CCCCN)C(=O)N[C@@H](C)C(=O)N[C@@H](CC(C)C)C(N)=O)C(C)C` [DRAMP02273a] (H-KIAKVALKAL-NH2) was tested, and the “Modal MIC” value (S. aureus (MRSA) USA300; [4]) was over 128 µg/mL, the “Modal MIC” value (S. aureus (MRSA) USA300; shown in µM) was over 117.5 µM and the “Modal MIC” value [1, 4] was over 128 µg/mL. For the same compound, the “Modal MIC” value ([1]; shown in µM) was over 117.5 µM, the “Modal MIC” value (S. aureus (MRSA) 1199B; [4]) was over 128 µg/mL and the “Modal MIC” value (S. aureus (MRSA) 1199B; shown in µM) was over 117.5 µM. For the same compound, the “Modal MIC50” value (C. auris TDG 1912) was over 117.5 µM, the “Modal MIC90” value (C. auris TDG 1912) was over 117.5 µM and the “Modal MIC” value (K. pneumoniae NCTC 13368; [4]) was over 128 µg/mL. For the same compound, the “Modal MIC” value (K. pneumoniae NCTC 13368; shown in µM) was over 117.5 µM, the “Modal MIC50” value (C. albicans NCPF 3281) was over 117.5 µM and the “Modal MIC90” value (C. albicans NCPF 3281) was over 117.5 µM. The “Modal MIC50” value [2] was over 117.5 µM, the “Modal MIC90” value [2] was over 117.5 µM and the “Modal MIC50” value (C. krusei NCPF 3876) was over 117.5 µM. The “Modal MIC90” value (C. krusei NCPF 3876) was over 117.5 µM, the “Modal MIC50” value (C. tropicalis NCPF 8760) was over 117.5 µM and the “Modal MIC90” value (C. tropicalis NCPF 8760) was over 117.5 µM. For the same compound, the “Modal MIC50” value (C. glabrata NCPF 8018) was over 117.5 µM, the “Modal MIC90” value (C. glabrata NCPF 8018) was over 117.5 µM and the “Modal MIC” value (P. aeruginosa NCTC 13437; [4]) was over 128 µg/mL. The “Modal MIC” value (P. aeruginosa NCTC 13437; shown in µM) was over 117.5 µM, the “Modal MIC” value (A. baumannii AYE; [4]) was over 128 µg/mL and the “Modal MIC” value (A. baumannii AYE; shown in µM) was over 117.5 µM.
`NC[C@H]1O[C@H](O[C@H]2[C@H](O)[C@@H](O[C@H]3O[C@H](CO)[C@@H](O)[C@H](N)[C@H]3O)[C@H](N)C[C@@H]2N)[C@H](N)C[C@@H]1O` [Tobramycin, reference compound] was tested, and the MIC ([1]; Staphylococcus aureus, 20 h, read-out: Modal MIC) was 0.5 µg/mL (≈ 1.07 µM), the MIC (S. aureus (MRSA) 1199B; Staphylococcus aureus, MRSA, 20 h, read-out: Modal MIC) was 0.25 µg/mL (≈ 0.535 µM) and the MIC ([3]; Staphylococcus aureus, read-out: Modal MIC) was 0.25 to 0.5 µg/mL (≈ 0.535 to 1.07 µM). It also gave an MIC (E. coli LEC001; Escherichia coli, LEC001, 20 h, read-out: Modal MIC) of 8 µg/mL (≈ 17.1 µM), an MIC (E. coli NCTC 12923; Escherichia coli, NCTC12923, 20 h, read-out: Modal MIC) of 16 µg/mL (≈ 34.2 µM) and an MIC (K. pneumoniae NCTC 13368; Klebsiella pneumoniae, NCTC13368, 20 h, read-out: Modal MIC) of 64 µg/mL (≈ 137 µM). For the same compound, the MIC (K. pneumoniae M6; Klebsiella pneumoniae, M6, 20 h, read-out: Modal MIC) was 8 µg/mL (≈ 17.1 µM), the MIC (P. aeruginosa NCTC 13437; Pseudomonas aeruginosa, NCTC13437, 20 h, read-out: Modal MIC) was 64 µg/mL (≈ 137 µM) and the MIC (P. aeruginosa PAO1; Pseudomonas aeruginosa, PAO1, 20 h, read-out: Modal MIC) was 2 µg/mL (≈ 4.28 µM). It also gave an MIC (A. baumannii AYE; Acinetobacter baumannii, 20 h, read-out: Modal MIC) of 64 µg/mL (≈ 137 µM) and an MIC (A. baumannii ATCC 17978; Acinetobacter baumannii, ATCC17978, 20 h, read-out: Modal MIC) of 4 µg/mL (≈ 8.56 µM).
For Gentamycin [reference compound], the “Modal MIC” value (S. aureus (MRSA) USA300; [4]) was 4 µg/mL, the “Modal MIC” value [1, 4] was 0.25 µg/mL and the “Modal MIC” value (S. aureus (MRSA) 1199B; [4]) was 0.25 µg/mL. The “Modal MIC” value ([3]; S. aureus (MSSA) ATCC 9144 (S), MHB, 37 °C, OD600, min. three biological repeats) was 0.25 µg/mL, the “Modal MIC” value (E. coli LEC001; E. coli LEC001 (R), MHB, 37 °C, 20 h, OD600, min. three biological repeats) was 4 µg/mL and the “Modal MIC” value (E. coli NCTC 12923; E. coli NCTC 12923 (S), MHB, ~5×10^5 CFU/mL, 37 °C, 20 h, OD600, min. three biological repeats) was 1 µg/mL. The “Modal MIC” value (K. pneumoniae NCTC 13368; [4]) was 4 µg/mL, the “Modal MIC” value (K. pneumoniae M6; K. pneumoniae M6 (S), MHB, 37 °C, 20 h, OD600, min. three biological repeats) was 0.25 µg/mL and the “Modal MIC” value (P. aeruginosa NCTC 13437; [4]) was 256 µg/mL. For the same compound, the “Modal MIC” value (P. aeruginosa PAO1; P. aeruginosa PAO1 (S), MHB, 37 °C, 20 h, OD600, min. three biological repeats) was 4 µg/mL, the “Modal MIC” value (A. baumannii AYE; [4]) was over 512 µg/mL and the “Modal MIC” value (A. baumannii ATCC 17978; A. baumannii ATCC 17978 (S), MHB, 37 °C, 20 h, OD600, min. three biological repeats) was 0.5 µg/mL.
